One experiment concerns the target PFKFB3 (Homo sapiens (Human), UniProt Q16875). In words: PFKFB3 kinase activity, Method A (F-2,6-P2 production, coupled PPi-PFK/NADH assay). It counts as biochemical. The text has this: (§1) The PFKFB3 (placenta form) and PFKFB4 were produced and purified to homogeneity from E. coli at Biovitrum and at Sprint Bioscience. All other reagents were purchased from commercial sources. Two independent methods have been used for determination of the kinase activity of PFKFB3 (Method A and Method B). Method B has been used for determination of the kinase activity of PFKFB4.
Method A: The kinase activity of the bi-functional enzyme is readily quantified based on the production of F-2,6-P2 as described by Van Schaftingen et al. (1982) Eur. J. Biochem. 129, 191-5. This sensitive assay is based on the potent activation of pyrophosphate dependent phosphofructokinase-1 (PPi-PFK) from potato tubers by F-2,6-P2. The use of a series of coupled enzymes leads to a consumption of NADH (nicotinamide adenine dinucleotide) that can be followed spectrophotometrically (an updated protocol is available in Van Schaftingen, (1984) Methods of Enzymatic Analysis (Bergmeyer, H. U., ed.), 3rd edn., vol. 6, pp. 335-341, Verlag Chemie, Weinheim). A protocol for measurements in 96-well microtiter plate format is also available (Bruni et al., (1989) Anal. Biochem. 178, 324-6). These assay protocols have been adopted for the measurement of the kinase activity of PFKFB3 with some modifications as described in the protocol below.
The assay was run in 96-well microtiter plates (Costar 3365 round bottom polypropylene) by consecutive additions of 30 μl each of a test compound solution (diluted from a DMSO stock solution), a PFKFB3 solution and a substrate (fructose-6-phosphate (F6P) and adenosine-5′-triphosphate (ATP)) containing solution. […] The final concentrations of all reagents in a total assay volume of 90 μl per well were: • 50 mM Tris-acetate at pH 8.0 • 0.1 mM EDTA (ethylene diamine tetraacetic acid) • 10 mM MgCl2 • 5 mM Na2HPO4 (buffered by the Tris-acetate to a final pH of 8.0) • 5 nM PFKFB3 • 4 μM ATP • 100 μM F6P (acid treated and then neutralized to remove any contaminating F-2,6-P2; see Van Schaftingen, 1984) • 1 mM dithiothreitol (DTT) • 0.005% Tween-20
A test compound at various concentrations (which also added 0.83% DMSO to the final solution)
The enzymatic reaction was allowed to proceed for 10 minutes at room temperature while on a plate shaker at medium speed (750 RPM). The reaction was then terminated by the addition of 90 μl of a 0.4 M NaOH solution to all wells. The plate was then placed on the plateshaker at the same speed for two minutes to allow sufficient mixing. All samples were then diluted by a factor of 10 by transferring 20 μl from each well to the corresponding well of a new plate with 180 μl distilled water predispensed to all wells.
The next step in the protocol was quantification of the levels of F-2,6-P2 in each well of the microtiter plate. This was done by transferring 20 μl of the content in each well to the corresponding position in a new plate (Nunc 269620 transparent 96-well plate). […] To ensure that all measured values were within the linear range of the response (measured to be between 0-1 nM of F-2,6-P2 as also described by Van Schaftingen) the same volume of a 2.5 nM and a 5.0 nM standard sample were also added to column 12 (as all samples were diluted five-fold in the assay procedure this corresponds to 0.5 and 1.0 nM samples). The procedure then involved consecutive additions of three solutions with the following premixed components: • Assay-mix (20 μl): Tris-acetate at pH 8.0, NADH and Mg(OAc)2 • PPi/F6P-mix (40 μl): Pyrophosphate and F6P • Enzyme-mix (20 μl): Tris-acetate at pH 8.0, aldolase, triose phosphate isomerase, glycerol-3-phosphate dehydrogenase, pyrophosphate-dependent phosphofructokinase from potato tubers and bovine serum albumin (BSA) […]

The target in a further experiment is PFKFB4 (Homo sapiens (Human), UniProt Q16877). In words: PFKFB4 kinase activity, Method B (ADP-Glo Kinase Assay). It counts as biochemical.
From the text: as §1
Method B: The kinase activity of the bi-functional enzyme is readily quantified based on the production of ADP and F-2,6-P2 from ATP and F6P. The ADP is detected with a kit, ADP-Glo™ Kinase Assay^(a-e), from Promega. The assay is a luminescent ADP detection assay that measures kinase activity by quantifying the amount of ADP produced during the kinase reaction. The assay is performed in two steps; first, after the kinase reaction, an equal volume of ADP-Glo™ Reagent is added to terminate the kinase reaction and deplete the remaining ATP. Second, the Kinase Detection Reagent is added to simultaneously convert ADP to ATP and allow the newly synthesized ATP to be measured using a luciferase/luciferine reaction. The light generated is measured using a luminescence counter (1450 MicroBeta TriLux).
The assay was performed in white 384-well microtiter plates (OptiPlate, 6007299, PerkinElmer) by consecutive additions of 0.1 μL of a test compound solution (serial diluted in DMSO from compound DMSO stock solution and dispensed by acoustic dispensing from UV-star 384-well plate 7360153, VWR), 5 μL of enzyme solution and 5 μL of a substrate (fructose-6-phosphate (F6P) and adenosine-5′-triphosphate (ATP)) containing solution. […] Four reference dose response curves, one of them being the QC compound, were included in row O1-2, P1-2, and serial diluted as the test compounds. The final concentrations of all reagents in a total assay volume of 10.1 μL per well were: • 50 mM Tris-HCl at pH 8.0 • 10 mM MgCl2 • 5 mM Na2HPO4 at pH 8.0 • 81.48 nM PFKFB3 or 145 nM PFKFB4 • 8 μM ATP • 100 μM F6P (acid treated and then neutralized to remove any contaminating F-2,6-P2; see Van Schaftingen, 1984) • 0.005% Tween-20 • 1 mM dithiothreitol (DTT) • A test compound at various concentrations or controls (final DMSO concentration 0.99%)
Enzyme, compounds and controls were pre-incubated at room temperature for 15 min before the addition of substrate solution. The enzymatic reaction was allowed to proceed for 20 min (PFKFB3) or 40 min (PFKFB4) at room temperature. The reaction was terminated by the addition of 10 μL of ADP-Glo™ Reagent to all wells and the plate was incubated for 40 min at room temperature. After addition of 20 μL Kinase Detection Reagent to all wells the plate was incubated for 30 min at room temperature, followed by measurement in 1450 MicroBeta TriLux. All plates were centrifuged after each addition (room temperature, short spin, 500 RPM, Megafuge 1.0 Heraeus Instruments).
The inhibitory potency or IC50 values of test compounds on the kinase activity of PFKFB3 or PFKFB4 were calculated using a four-parameter model (model 205) in XLfit (IDBS ActivityBase XE Runner).

The results in this text go back to US9233946B2, “Sulfonamide compounds” (KANCERA AB, priority 2010, dated 2016).

Sequence of PFKFB4 (Q16877 whole entry): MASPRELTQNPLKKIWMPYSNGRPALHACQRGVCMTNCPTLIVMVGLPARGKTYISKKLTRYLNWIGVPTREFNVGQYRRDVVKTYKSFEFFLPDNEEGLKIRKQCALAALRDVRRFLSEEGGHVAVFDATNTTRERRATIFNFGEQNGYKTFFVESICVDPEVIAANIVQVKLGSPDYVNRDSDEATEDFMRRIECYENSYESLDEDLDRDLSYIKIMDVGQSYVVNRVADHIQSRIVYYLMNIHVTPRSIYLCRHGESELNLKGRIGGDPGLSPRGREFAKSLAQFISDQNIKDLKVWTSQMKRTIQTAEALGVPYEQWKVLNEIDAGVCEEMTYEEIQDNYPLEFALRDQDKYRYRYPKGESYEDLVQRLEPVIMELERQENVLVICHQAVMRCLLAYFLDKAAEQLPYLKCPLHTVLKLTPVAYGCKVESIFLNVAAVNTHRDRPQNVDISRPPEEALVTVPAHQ
Sequence of PFKFB3 (Q16875 whole entry): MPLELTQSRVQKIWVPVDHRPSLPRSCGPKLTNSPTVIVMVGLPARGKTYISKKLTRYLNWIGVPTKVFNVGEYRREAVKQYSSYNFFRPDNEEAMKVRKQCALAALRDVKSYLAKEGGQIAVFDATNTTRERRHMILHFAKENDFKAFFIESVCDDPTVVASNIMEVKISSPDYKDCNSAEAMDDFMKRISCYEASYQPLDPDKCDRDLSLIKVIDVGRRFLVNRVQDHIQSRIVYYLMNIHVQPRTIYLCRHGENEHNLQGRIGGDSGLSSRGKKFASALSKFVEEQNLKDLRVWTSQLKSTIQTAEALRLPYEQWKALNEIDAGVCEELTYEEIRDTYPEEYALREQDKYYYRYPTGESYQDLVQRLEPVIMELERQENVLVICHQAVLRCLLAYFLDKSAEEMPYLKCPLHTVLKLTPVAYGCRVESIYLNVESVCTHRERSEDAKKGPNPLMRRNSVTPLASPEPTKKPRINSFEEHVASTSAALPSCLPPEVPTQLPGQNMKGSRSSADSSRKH

Take `Cc1c(S(=O)(=O)Nc2cccc(C(=O)O)c2)sc2ccc(Cl)cc12` [Example 38, 3-{[(5-Chloro-3-methyl-1-benzothien-2-yl)sulfonyl]amino}benzoic acid]: the IC50 (commonly the concentration needed to halve the response being measured) was found to be 180 nM against PFKFB3 and 130 nM at PFKFB4.

With `Cc1c(S(=O)(=O)Nc2cccc(C(=O)O)c2)sc2ccc(C(C)C)cc12` [Example 5, 3-{[(5-Isopropyl-3-methyl-1-benzothien-2-yl)sulfonyl]amino}benzoic acid], the values for the IC50 against PFKFB3 and against PFKFB4 were 30 nM and 60 nM, respectively.
